“Also recorded” adds a separate entry of the source.
How the values were obtained:
human peripheral blood = assay: ELISPOT of cytokine-positive cells in human peripheral blood treated in vitro; format: cell-based; details: comparable conditions
DR cells = assay: DR lymphoma cell growth, MTT assay; format: cell-based, human; details: 100 μg/ml, day 6
Procedure: (§1) For cell proliferation assays, cells were grown in 10% FCS culture medium containing various amounts of IFNs and/or sodium stibogluconate in 96 well plates and cultured at 37° C. for 3 or 6 days as indicated. The numbers of viable cells in proliferation assays were determined by MTT assays as described in Phatak et al., J. Immunol. 167, 3391 (2001).

PRL-3 [1] = biological target: T1, PRL-3 (Homo sapiens, UniProt O75365); assay: In vitro PTPase assay, recombinant PRL-3; format: biochemical; details: 10 μg/ml, pre-incubation 30 or 60 minutes
T1 construct: GST (N); made in house; host or cells: DHSa (DH5a) bacteria
T1 sequence (O75365 whole entry): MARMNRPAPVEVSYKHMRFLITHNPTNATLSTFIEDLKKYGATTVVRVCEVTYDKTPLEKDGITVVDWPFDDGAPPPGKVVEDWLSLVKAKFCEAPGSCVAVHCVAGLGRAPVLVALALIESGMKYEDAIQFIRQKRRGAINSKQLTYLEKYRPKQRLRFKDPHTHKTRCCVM
Source text: Sodium stibogluconate, suramin, sodium orthovanadate and GST fusion protein of SHP-1 have been described previously (Pathak et al., J. Imumol. 167, 3391 (2001)). Meglumine antimonate was obtained from Aventis. cDNAs of human PRL-1, PRL-2 and PRL-3 coding region were derived by RT-PCR from H9 cells (Safai, et al., Lancet 1, 1438 (1984)) and inserted in frame into the pGEX vector. cDNA of PRL-1R86 was generated by recombinant DNA technique using PRL-1 cDNA as template following established procedures (Jiao, et al., Mol. Cell. Biol. 16, 6985 (1996)). […]
In vitro PTPase assays were used to determine the effects of compounds on recombinant PTPases, following established procedures using a synthetic phosphotyrosine peptide or DiFMUP as the substrate (Pathak et al., J. Imumol. 167, 3391 (2001)). […] PTPase activity of individual reactions was measured by adding 100 µL of malachite green solution (UBI) and then quantifying the amounts of free phosphate cleaved by the PTPase from the peptide substrate by spectrometry (OD660 nm). […] Relative PTPase activities were calculated based on the formula: (PTPase activity in the presence of an inhibitory compound/PTPase activity in the absence of the compound)× 100%. […]

intracellular Flag-PRL-2 = biological target: T2, intracellular Flag-PRL-2 (Homo sapiens, UniProt Q12974); assay: Immunocomplex PTPase assay, Flag-PRL-2 NIH3T3 transfectants; format: cell-based, mouse
T2 construct: expressed in transfected cells; host or cells: NIH3T3 transfectants, pBabepuro vector
T2 sequence (Q12974 whole entry): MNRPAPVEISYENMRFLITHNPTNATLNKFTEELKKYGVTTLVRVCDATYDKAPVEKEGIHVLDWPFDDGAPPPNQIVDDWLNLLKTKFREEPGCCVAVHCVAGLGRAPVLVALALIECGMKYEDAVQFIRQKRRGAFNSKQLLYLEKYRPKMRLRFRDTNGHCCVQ
Procedure: Immunocomplex PTPase assays were performed to assess the effects of sodium stibogluconate on intracellular PTPases. Cells were untreated or treated with sodium stibogluconate for 5 minutes, washed with fresh medium and then lysed in cold lysis buffer (50 mM Tris, pH 7.4; 150 mM NaCl; 1% NP40; 2 mM PMSF; 20, g/ml of Aprotinin). The lysates were incubated with an anti-Flag antibody in immunoprecipitation assays. The immunocomplexes were collected with protein G sepharose beads (Pharmacia) and washed in cold lysis buffer for 4 times. […] 100 µL of malachite green solution (UBI) was added to each reaction prior to measurement of OD660 to quantify the amounts of free phosphate cleaved by the PTPases from the peptide substrate (Pathak et al., J. Imumol. 167, 3391 (2001)). The remaining 10% contents of individual samples were analyzed by SDS-PAGE/Western blotting to quantify the relative amounts of the phosphatase proteins. […]
The effects of sodium stibogluconate on intracellular PTPases were assessed using NIH3T3 or WM9 transfectants. […]

PRL-3 [2] = biological target: T1, PRL-3; assay: In vitro PTPase assay, recombinant PRL-3, DiFMUP substrate; format: biochemical; details: comparable conditions
Procedure: In vitro PTPase assays were used to determine the effects of compounds on recombinant PTPases, following established procedures using a synthetic phosphotyrosine peptide or DiFMUP as the substrate (Pathak et al., J. Imumol. 167, 3391 (2001)). Briefly, individual PTPases (0.1 µg/reaction) in 50 μL of PTPase buffer (50 mM Tris, pH 7.4) were incubated at 22° C. for 10 minutes or as indicated in the absence or presence of inhibitory compounds. Substrates (0.2 mM phosphotyrosine peptide) were then added and allowed to react at 22° C. for 18 hrs. PTPase activity of individual reactions was measured by adding 100 µL of malachite green solution (UBI) and then quantifying the amounts of free phosphate cleaved by the PTPase from the peptide substrate by spectrometry (OD660 nm). PTPase assays using DiFMUP as a substrate were conducted following a previously described procedure (Matter, et al., Biochem. Biophys. Res. Comm. 283, 1061 (2001)). Relative PTPase activities were calculated based on the formula: (PTPase activity in the presence of an inhibitory compound/PTPase activity in the absence of the compound)× 100%. To assess the reversibility of PTPase inhibition, GST fusion proteins of the PTPases bound on glutathione beads (Pharmacia) were pre-incubated with cold Tris buffer (50 mM Tris, pH 7.0) or Tris buffer containing the inhibitor at 4° C. for 30 minutes. The beads were then washed three times in cold Tris buffer or not washed prior to subjecting to in vitro PTPase assays.

WiT49-N1 cells = assay: WiT49-N1 Wilms tumor cell growth, MTT assay; format: cell-based, human; details: single agent, day 6; killing at 100 μg/ml
Procedure: as §1

DS cells = assay: DS lymphoma cell growth, MTT assay; format: cell-based, human; details: day 3; IFN-alpha 1,000 u/ml
Procedure: as §1

With `O.O.O.O.O.O.O.O.O.O=C([O-])[C@@H]1[O][Sb]2([O-])([O][Sb]34([OH])[O][C@H]([C@H](O)CO)[C@H]([O]3)[C@H](C(=O)[O-])[O]4)[O][C@H]([C@H](O)CO)[C@@H]1[O]2.[Na+].[Na+].[Na+]` [sodium stibogluconate] the “induction of IL-5+ cells” value (human peripheral blood) was “not induced”, the “killing of DR cells” value (DR cells) was “complete or near complete killing” and the “inactivation of PRL-3” value (PRL-3 [1]) was “nearly complete inactivation”. For the same molecule, the “PTPase activity of Flag-PRL-2 immunocomplexes from treated cells” value (intracellular Flag-PRL-2; 5 min treatment) was “lack of PTPase activity; also recorded: markedly reduced PTPase activity”, the “time for full removal of effect on intracellular PRL-2 activity” value (intracellular Flag-PRL-2; brief treatment) was “at least 24 hours” and the “inhibition of PRL-3 with DiFMUP substrate” value (PRL-3 [2]) was “also detected”. The “sensitivity/killing of WiT49-N1 cells” value (WiT49-N1 cells) was “sensitive; also recorded: complete or near complete killing” and the “activity against DS cells” value (DS cells) was “modest activity”.

Source: patent publication US20080226596A1, “Therapeutic compositions and methods useful in treating hepatitis” (priority 2006, published 2008)
